Experimental data taken from patent US7713965B2, “7-substituted 3-carboxy-oxadiazino-quinolone derivatives, their preparation and their application as anti-bacterials” (Vetoquinol SA, priority 2008, dated 2010).

| Compound | melting point |
| --- | --- |
| CN1COc2c(N3CCC(Nc4nncs4)C3)c(F)cc3c(=O)c(C(=O)O)cn1c23 (stereo not shown) (hydrate or solvate) [Example 10, 8-Fluoro-3-methyl-6-oxo-9-[3-([1,3,4]thiadiazol-2-ylamino)-pyrrolidin-1-yl]-2,3-dihydro-6H1-oxa-3,3a-diaza-phenalene-5-carboxylic acid] | 320 °C (dec.) |
| CC1Oc2c(N3C[C@H](N)C(C)(C)C3)c(F)cc3c(=O)c(C(=O)O)cn(c23)N1C (stereo partly shown) (hydrate or solvate) | 212 to 214 °C |
| CN1COc2c(N3CCC(NC(=O)C(F)(F)F)C3)c(F)cc3c(=O)c(C(=O)O)cn1c23 (stereo not shown) (hydrate or solvate) [Example 27, 8-Fluoro-3-methyl-6-oxo-9-[3-(2,2,2-trifluoro-acetylamino)-pyrrolidin-1-yl]-2,3-dihydro-6H-1-oxa-3,3a-diaza-phenalene-5-carboxylic acid] | 281 to 283 °C |
| CN1COc2c(N3CCC(c4nnn[nH]4)C3)c(F)cc3c(=O)c(C(=O)O)cn1c23 (stereo not shown) (hydrate or solvate) | 250 °C (dec.) |
| CN1COc2c(N3CC[C@@H](Nc4nccs4)C3)ccc3c(=O)c(C(=O)O)cn1c23 (hydrate or solvate) | 275 °C (dec.) |
| CN1COc2c(N3CCC(Nc4ccccn4)C3)c(F)cc3c(=O)c(C(=O)O)cn1c23 (stereo not shown) (hydrate or solvate) [Example 8] | 278 to 280 °C |
| CN1COc2c(N3CCC(NC(=O)CC(F)(F)F)C3)c(F)cc3c(=O)c(C(=O)O)cn1c23 (stereo not shown) (hydrate or solvate) | 292 °C (dec.) |
| Cc1cc(N[C@@H]2CCN(c3c(F)cc4c(=O)c(C(=O)O)cn5c4c3OCN5C)C2)on1 (hydrate or solvate) | 255 to 257 °C |
| Cc1cc(NC2CCN(c3c(F)cc4c(=O)c(C(=O)O)cn5c4c3OCN5C)C2)sn1 (stereo not shown) (hydrate or solvate) | 265 °C |
| CN1COc2c(N3CC[C@H](Nc4nccs4)C3)c(F)cc3c(=O)c(C(=O)O)cn1c23 (hydrate or solvate) [Example 18, 8-Fluoro-3-methyl-6-oxo-9-[(S)-3-(thiazol-2-ylamino)-pyrrolidin-1-yl]-2,3dihydro-6H-1-oxa-3,3a-diaza-phenalene-5-carboxylic acid] | 275 °C |
| CN1n2cc(C(=O)O)c(=O)c3cc(F)c(N4C[C@H](N)C(C)(C)C4)c(c32)OC1(C)C (hydrate or solvate) | 255 to 257 °C |
| CN1COc2c(N3CC(O)C(C)(C)C3)c(F)cc3c(=O)c(C(=O)O)cn1c23 (stereo not shown) (hydrate or solvate) | 281 °C (dec.) |
| CN1COc2c(N3CCC(C(N)c4nccs4)C3)c(F)cc3c(=O)c(C(=O)O)cn1c23 (stereo not shown) (hydrate or solvate) [Example 39, 9-[3-(Amino-thiazol-2-yl-methyl)-pyrrolidin-1-yl]-8-fluoro-3-methyl-6-oxo-2,3-dihydro-6H-1-oxa-3,3a-diaza-phenalene-5-carboxylic acid] | 233 to 235 °C |
| CN1COc2c(N3C[C@@H](N)C(C)(C)C3)c(F)cc3c(=O)c(C(=O)O)cn1c23 (hydrate or solvate) [Example 34, 9-((S)-4-Amino-3,3-dimethyl-pyrrolidin-1-yl)-8-fluoro-3-methyl-6-oxo-2,3-dihydro-6H-1-oxa-3,3a-diaza-phenalene-5-carboxylic acid] | 230 °C (dec.) |
| CN1COc2c(N3CCC(Nc4nccs4)CC3)c(F)cc3c(=O)c(C(=O)O)cn1c23 (hydrate or solvate) | 280 °C |
| CN1COc2c(N3CC(N)C(C)(C)C3)c(F)cc3c(=O)c(C(=O)O)cn1c23 (racemic) (hydrate or solvate) [Example 33, 9-((R,S)-4-Amino-3,3-dimethyl-pyrrolidin-1-yl)-8-fluoro-3-methyl-6-oxo-2,3-dihydro-6H-1-oxa-3,3a-diaza-phenalene-5-carboxylic acid] | 237 °C (dec.) |
| CN1COc2c(N3CCC(O)(c4nccs4)C3)c(F)cc3c(=O)c(C(=O)O)cn1c23 (stereo not shown) (hydrate or solvate) | 252 to 253 °C |
| CC1Oc2c(N3CC[C@H](NC(=O)C(F)(F)F)C3)ccc3c(=O)c(C(=O)O)cn(c23)N1C (stereo partly shown) (hydrate or solvate) | 260 °C |
| CN1COc2c(N3CCC(CNc4cnccn4)C3)c(F)cc3c(=O)c(C(=O)O)cn1c23 (stereo not shown) (hydrate or solvate) [Example 1, 8-fluoro-3-methyl-6-oxo-9-[3-(pyrazin-2-ylaminomethyl)-pyrrolidin-1-yl]-2,3-dihydro-6H-1-oxa-3,3a-diaza-phenalene-5-carboxylic acid] | 238 to 240 °C |
| CN1COc2c(N3CC[C@H](NC(=O)C(F)(F)F)C3)c(F)cc3c(=O)c(C(=O)O)cn1c23 (hydrate or solvate) [Example 28, 8-Fluoro-3-methyl-6-oxo-9-[(S)-3-(2,2,2-trifluoro-acetylamino)-pyrrolidin-1-yl]-2,3-dihydro-6H-1-oxa-3,3a-diaza-phenalene-5-carboxylic acid] | 273 to 275 °C |
| CN1COc2c(N3CC[C@H](n4ccnn4)C3)c(F)cc3c(=O)c(C(=O)O)cn1c23 (hydrate or solvate) | 235 °C (dec.) |
| Cc1cc(NC2CCN(c3c(F)cc4c(=O)c(C(=O)O)cn5c4c3OCN5C)C2)on1 (stereo not shown) (hydrate or solvate) | 244 °C (dec.) |
| Cc1nnc(NC2CCN(c3c(F)cc4c(=O)c(C(=O)O)cn5c4c3OCN5C)C2)o1 (stereo not shown) (hydrate or solvate) | 285 °C |
| CN1COc2c(N3CCC(C(O)c4nccs4)C3)c(F)cc3c(=O)c(C(=O)O)cn1c23 (stereo not shown) (hydrate or solvate) [Example 38, 8-Fluoro-9-[3-(hydroxy-thiazol-2-yl-methyl)-pyrrolidin-1-yl]-3-methyl-6-oxo-2,3-dihydro-6H-1-oxa-3,3a-diaza-phenalene-5-carboxylic acid] | 215 to 217 °C |

The remaining lines, values ahead:

| melting point | Compound |
| --- | --- |
| 265 °C (dec.) | Cc1cnc(NC2CCN(c3c(F)cc4c(=O)c(C(=O)O)cn5c4c3OCN5C)C2)s1 (stereo not shown) (hydrate or solvate) |
| 287 °C (dec.) | CN1n2cc(C(=O)O)c(=O)c3ccc(N4CC[C@@H](Nc5nccs5)C4)c(c32)OC1(C)C (hydrate or solvate) |
| 222 to 224 °C | CN(c1nccs1)[C@@H]1CCN(c2c(F)cc3c(=O)c(C(=O)O)cn4c3c2OCN4C)C1 (hydrate or solvate) |
| 263 °C (dec.) | Cc1cc(NC2CCN(c3c(F)cc4c(=O)c(C(=O)O)cn5c4c3OCN5C)C2)no1 (stereo not shown) (hydrate or solvate) |
| 235 °C (dec.) | CN1COc2c(N3CC[C@@H](n4ccnn4)C3)c(F)cc3c(=O)c(C(=O)O)cn1c23 (hydrate or solvate) |
| 265 °C (dec.) | CN1COc2c(N3C[C@@H](Nc4nccs4)C(C)(C)C3)c(F)cc3c(=O)c(C(=O)O)cn1c23 (hydrate or solvate) |
| 267 to 269 °C | CN1COc2c(N3CCC(N4CCCC4)CC3)c(F)cc3c(=O)c(C(=O)O)cn1c23 (hydrate or solvate) |
| 239 °C (dec.) | CN1COc2c(N3CCC(Nc4cnccn4)CC3)c(F)cc3c(=O)c(C(=O)O)cn1c23 (hydrate or solvate) |
| 306 to 308 °C | CN1COc2c(N3CCC(NC(=O)c4ccco4)C3)c(F)cc3c(=O)c(C(=O)O)cn1c23 (stereo not shown) (hydrate or solvate) |
| 266 °C (dec.) | Cc1nc(NC2CCN(c3c(F)cc4c(=O)c(C(=O)O)cn5c4c3OCN5C)C2)sc1C (stereo not shown) (hydrate or solvate) |
| 283 °C | CN1n2cc(C(=O)O)c(=O)c3cc(F)c(N4CC[C@H](NC(=O)C(F)(F)F)C4)c(c32)OC1(C)C (hydrate or solvate) [53] |
| 260 to 263 °C | CC1Oc2c(N3CC[C@@H](Nc4nccs4)C3)ccc3c(=O)c(C(=O)O)cn(c23)N1C (stereo partly shown) (hydrate or solvate) |
| 255 to 257 °C | Cc1cc(N[C@H]2CCN(c3c(F)cc4c(=O)c(C(=O)O)cn5c4c3OCN5C)C2)on1 (hydrate or solvate) |
| 293 to 295 °C | CN1COc2c(N3CCC(NC(=O)c4ccco4)CC3)c(F)cc3c(=O)c(C(=O)O)cn1c23 (hydrate or solvate) |
| 255 °C (dec.) | CN1COc2c(N3CC[C@@H](Nc4cnccn4)C3)c(F)cc3c(=O)c(C(=O)O)cn1c23 (hydrate or solvate) |
| 285 °C (dec.) | CN1COc2c(N3CCC(Nc4ncns4)C3)c(F)cc3c(=O)c(C(=O)O)cn1c23 (stereo not shown) (hydrate or solvate) |
| 268 to 270 °C | CN1COc2c(N3CCC(CNc4nccs4)C3)c(F)cc3c(=O)c(C(=O)O)cn1c23 (stereo not shown) (hydrate or solvate) |
| 245 °C (dec.) | CN1COc2c(N3CC[C@H](Nc4ncc[nH]4)C3)c(F)cc3c(=O)c(C(=O)O)cn1c23 (hydrate or solvate) |
| 249 °C (dec.) | CN1COc2c(N3CCC(N4CCCCC4)CC3)c(F)cc3c(=O)c(C(=O)O)cn1c23 (hydrate or solvate) |
| 265 to 267 °C | CN1COc2c(N3CCC(NC4=NCCS4)C3)c(F)cc3c(=O)c(C(=O)O)cn1c23 (stereo not shown) (hydrate or solvate) |
| 240 to 245 °C | CN1COc2c(N3CC(N)C(c4nccs4)C3)c(F)cc3c(=O)c(C(=O)O)cn1c23 (stereo not shown) (hydrate or solvate) |
| 264 °C (dec.) | CN1COc2c(N3CCC(Nc4ccccn4)CC3)c(F)cc3c(=O)c(C(=O)O)cn1c23 (hydrate or solvate) |
| 260 °C (dec.) | Cc1csc(NC2CCN(c3c(F)cc4c(=O)c(C(=O)O)cn5c4c3OCN5C)C2)n1 (stereo not shown) (hydrate or solvate) |
| 225 °C (dec.) | CN1COc2c(N3CC[C@@H](Nc4ncc[nH]4)C3)c(F)cc3c(=O)c(C(=O)O)cn1c23 (hydrate or solvate) |
| 213 to 215 °C | CN1COc2c(N3CCC(CN(c4cnccn4)c4cnccn4)C3)c(F)cc3c(=O)c(C(=O)O)cn1c23 (stereo not shown) (hydrate or solvate) |
| 224 to 226 °C | CC1Oc2c(N3CC[C@@H](Nc4nccs4)C3)c(F)cc3c(=O)c(C(=O)O)cn(c23)N1C (stereo partly shown) (hydrate or solvate) |
| 235 to 237 °C | CN1n2cc(C(=O)O)c(=O)c3cc(F)c(N4CC[C@@H](Nc5nccs5)C4)c(c32)OC1(C)C (hydrate or solvate) |
| 240 °C | Cc1nnc(NCC2CCN(c3c(F)cc4c(=O)c(C(=O)O)cn5c4c3OCN5C)C2)o1 (stereo not shown) (hydrate or solvate) |
